Experimental findings from patent US8338401B2, “Coumarin-amide derivatives and its preparation, said drug composition and its use” (Institute of Materia Medica Chinese Academy of Medical …, priority 2002, dated 2012) are described below.

Converted amounts (≈) assume the structure as drawn.

In one data set the test system is TGF-β receptor. Nature of the data set: TGF-β receptor binding antagonism assay ([125I]TGF-β1) in Balb/c 3T3 cells. The settings on record: for Inhibition Rate (%): 10 μg/ml, 50 pmol/L [125I]TGF-β1. Here is the method: Balb/c 3T3 cells were seeded in 24 well-plate and cultured in Dulbecco's modified Eagle's medium (DMEM) supplemented with 10% fetal bovine serum, in 37° C. and 5% CO2, for 2-4 days. When cells were at a near-confluent, medium was changed to the binding buffer (50 mmol/L HEPES containing NaCl, KCl, MgSO4 and CaCl2). The assay was initiated by addition of 50 pmol/L [^125I]TGF-β1 and test compounds. After incubation for 210-240 minutes, the medium was removed, and cells were washed with ice-cold binding buffer. Non-specific bindings in the presence of 10 nmol/L TGF-β1 were determined. The cells were then solubilized using buffer containing Triton X-100 and the radioactivity was measured (see Table 4).

A word on the melting point: it is the temperature, or range, at which the solid turns liquid. Usually IC50 stands for the concentration that gives 50% inhibition. Low values mean inhibition by little substance, high ones a need for much substance.

For the compound `COc1cc2oc(=O)c(C(=O)Nc3ccc(O)c(C(=O)O)c3)cc2cc1Cl` [Compound 88, 3-(3′-carboxy-4′-hydroxy-phenylamidocarbonyl)-6-chloro-7-methoxy-coumarin], the melting point is above 300 °C. In addition, in the data set with TGF-β receptor, the IC50 is 5.3 µg/mL (≈ 13.6 µM) and the “Inhibition Rate (%)” value stood at 111.2%.
Consider `COc1ccc2cc(C(=O)Nc3ccc(C(=O)O)c(O)c3)c(=O)oc2c1` [Compound 7, 3-(3′-hydroxy-4′-carboxyphenylamidocarbonyl)-7-methoxy coumarin], for which the melting point is 279 °C (dec.). In the data set on TGF-β receptor, the IC50 worked out at 7.8 µg/mL (≈ 22 µM) and the “Inhibition Rate (%)” value was 94.2%.
